Measured values published in PubChem BioAssay AID1963838 (Molecular Pharmacology Branch, DTP, NCI, 2024).

System: 855422-203-R-J1-PDC complex spheroid viability
Assay: Anticancer human tumor 855422-203-R-J1-PDC patient-derived bladder carcinoma cell line growth inhibition [POLQ]
Conditions: for IC50: curve of first compound; for viability, T/C: stronger effect = lower value
In short: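 Complex spheroid viability model combining PDC tumour cells with endothelial (HUVEC) and MSC stromal cells. Novobiocin, ART-558 or RP6685 were tested singly and in combination with standard and investigational anticancer drugs. Each was titrated in half-log steps from near clinical Cmax, or from 10 microM where Cmax was unknown.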

[1] = second compound 0.0316 µM, first compound 0.0316 µM
[2] = second compound 0.0316 µM, first compound 0.1 µM
[3] = second compound 0.0316 µM, first compound 0.316 µM
[4] = second compound 0.0316 µM, first compound 1 µM
[5] = second compound 0.0316 µM, first compound 3.16 µM
[6] = second compound 0.0316 µM, first compound 10 µM
[7] = second compound 0.1 µM, first compound 0.0316 µM
[8] = second compound 0.1 µM, first compound 0.1 µM
[9] = second compound 0.1 µM, first compound 0.316 µM
[10] = second compound 0.1 µM, first compound 1 µM
[11] = second compound 0.1 µM, first compound 3.16 µM
[12] = second compound 0.1 µM, first compound 10 µM
[13] = second compound 0.316 µM, first compound 0.0316 µM
[14] = second compound 0.316 µM, first compound 0.1 µM
[15] = second compound 0.316 µM, first compound 0.316 µM
[16] = second compound 0.316 µM, first compound 1 µM
[17] = second compound 0.316 µM, first compound 3.16 µM
[18] = second compound 0.316 µM, first compound 10 µM
[19] = second compound 1 µM, first compound 0.0316 µM
[20] = second compound 1 µM, first compound 0.1 µM
[21] = second compound 1 µM, first compound 0.316 µM
[22] = second compound 1 µM, first compound 1 µM
[23] = second compound 1 µM, first compound 3.16 µM
[24] = second compound 1 µM, first compound 10 µM
[25] = second compound 3.16 µM, first compound 0.0316 µM
[26] = second compound 3.16 µM, first compound 0.1 µM
[27] = second compound 3.16 µM, first compound 0.316 µM
[28] = second compound 3.16 µM, first compound 1 µM
[29] = second compound 3.16 µM, first compound 3.16 µM
[30] = second compound 3.16 µM, first compound 10 µM
[31] = second compound 10 µM, first compound 0.0316 µM
[32] = second compound 10 µM, first compound 0.1 µM
[33] = second compound 10 µM, first compound 0.316 µM
[34] = second compound 10 µM, first compound 1 µM
[35] = second compound 10 µM, first compound 3.16 µM
[36] = second compound 10 µM, first compound 10 µM
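Further: spheroids exposed to compounds for seven days before readout.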

## CCc1cc2c(N3CCc4c(cc(Cn5ccnc5)cc4-c4cn(C)nc4C(F)(F)F)C3=O)cc(C)nc2c(OC)n1 + Nc1ccc(C#CCN(C(=O)Cc2ncc(C(F)(F)F)cc2C(F)(F)F)c2ccc(F)cc2)nn1
Second compound 0.0316 µM
  IC50: 6 µM
Second compound 0.1 µM
  IC50: 5.3 µM
Second compound 0.316 µM
  IC50: 5.49 µM
Second compound 1 µM
  IC50: 6.4 µM
Second compound 3.16 µM
  IC50: 5.25 µM
Second compound 10 µM
  IC50: 3.47 µM
[1]
  viability, T/C: 133%
[2]
  viability, T/C: 120%
[3]
  viability, T/C: 119%
[4]
  viability, T/C: 93.5%
[5]
  viability, T/C: 66.3%
[6]
  viability, T/C: 37.1%
[7]
  viability, T/C: 131%
[8]
  viability, T/C: 138%
[9]
  viability, T/C: 127%
[10]
  viability, T/C: 96%
[11]
  viability, T/C: 63.5%
[12]
  viability, T/C: 35.5%
[13]
  viability, T/C: 114%
[14]
  viability, T/C: 138%
[15]
  viability, T/C: 108%
[16]
  viability, T/C: 95.8%
[17]
  viability, T/C: 61.5%
[18]
  viability, T/C: 37.4%
[19]
  viability, T/C: 111%
[20]
  viability, T/C: 121%
[21]
  viability, T/C: 111%
[22]
  viability, T/C: 92.2%
[23]
  viability, T/C: 71.5%
[24]
  viability, T/C: 37.1%
[25]
  viability, T/C: 110%
[26]
  viability, T/C: 118%
[27]
  viability, T/C: 133%
[28]
  viability, T/C: 92.5%
[29]
  viability, T/C: 61.2%
[30]
  viability, T/C: 38.6%
[31]
  viability, T/C: 116%
[32]
  viability, T/C: 115%
[33]
  viability, T/C: 98%
[34]
  viability, T/C: 77.4%
[35]
  viability, T/C: 52.2%
[36]
  viability, T/C: 31.7%

## COc1ccc([C@@H](O)c2cc(-c3ncnc4cc(N5CCOCC5)ccc34)c(F)cc2Cl)nn1 + Nc1ccc(C#CCN(C(=O)Cc2ncc(C(F)(F)F)cc2C(F)(F)F)c2ccc(F)cc2)nn1
Second compound 0.0316 µM
  IC50: > 10 µM
Second compound 0.1 µM
  IC50: > 10 µM
Second compound 0.316 µM
  IC50: > 10 µM
Second compound 1 µM
  IC50: > 10 µM
Second compound 3.16 µM
  IC50: > 10 µM
Second compound 10 µM
  IC50: 9.83 µM
[1]
  viability, T/C: 110%
[2]
  viability, T/C: 105%
[3]
  viability, T/C: 89%
[4]
  viability, T/C: 94.5%
[5]
  viability, T/C: 106%
[6]
  viability, T/C: 58.4%
[7]
  viability, T/C: 91.8%
[8]
  viability, T/C: 104%
[9]
  viability, T/C: 104%
[10]
  viability, T/C: 98.1%
[11]
  viability, T/C: 106%
[12]
  viability, T/C: 59.4%
[13]
  viability, T/C: 115%
[14]
  viability, T/C: 126%
[15]
  viability, T/C: 86.4%
[16]
  viability, T/C: 98.5%
[17]
  viability, T/C: 110%
[18]
  viability, T/C: 54.3%
[19]
  viability, T/C: 99.8%
[20]
  viability, T/C: 96.8%
[21]
  viability, T/C: 93.4%
[22]
  viability, T/C: 104%
[23]
  viability, T/C: 111%
[24]
  viability, T/C: 51%
[25]
  viability, T/C: 94.6%
[26]
  viability, T/C: 105%
[27]
  viability, T/C: 87.5%
[28]
  viability, T/C: 94.2%
[29]
  viability, T/C: 90.7%
[30]
  viability, T/C: 57.4%
[31]
  viability, T/C: 92.3%
[32]
  viability, T/C: 92.5%
[33]
  viability, T/C: 98.3%
[34]
  viability, T/C: 86.2%
[35]
  viability, T/C: 98.6%
[36]
  viability, T/C: 49.3%

## Cn1ncnc1[C@H]1c2n[nH]c(=O)c3cc(F)cc(c23)N[C@@H]1c1ccc(F)cc1 + Nc1ccc(C#CCN(C(=O)Cc2ncc(C(F)(F)F)cc2C(F)(F)F)c2ccc(F)cc2)nn1
Second compound 0.0316 µM
  IC50: > 0.1 µM
Second compound 0.1 µM
  IC50: > 0.1 µM
Second compound 0.316 µM
  IC50: > 0.1 µM
Second compound 1 µM
  IC50: > 0.1 µM
Second compound 3.16 µM
  IC50: > 0.1 µM
Second compound 10 µM
  IC50: > 0.1 µM
Second compound 0.0316 µM, first compound 0.000316 µM
  viability, T/C: 96.1%
Second compound 0.0316 µM, first compound 0.001 µM
  viability, T/C: 125%
Second compound 0.0316 µM, first compound 0.00316 µM
  viability, T/C: 96%
Second compound 0.0316 µM, first compound 0.01 µM
  viability, T/C: 82%
[1]
  viability, T/C: 110%
[2]
  viability, T/C: 132%
Second compound 0.1 µM, first compound 0.000316 µM
  viability, T/C: 88.6%
Second compound 0.1 µM, first compound 0.001 µM
  viability, T/C: 157%
Second compound 0.1 µM, first compound 0.00316 µM
  viability, T/C: 92%
Second compound 0.1 µM, first compound 0.01 µM
  viability, T/C: 104%
[7]
  viability, T/C: 119%
[8]
  viability, T/C: 147%
Second compound 0.316 µM, first compound 0.000316 µM
  viability, T/C: 91.7%
Second compound 0.316 µM, first compound 0.001 µM
  viability, T/C: 154%
Second compound 0.316 µM, first compound 0.00316 µM
  viability, T/C: 91.4%
Second compound 0.316 µM, first compound 0.01 µM
  viability, T/C: 106%
[13]
  viability, T/C: 96.2%
[14]
  viability, T/C: 181%
Second compound 1 µM, first compound 0.000316 µM
  viability, T/C: 98.8%
Second compound 1 µM, first compound 0.001 µM
  viability, T/C: 154%
Second compound 1 µM, first compound 0.00316 µM
  viability, T/C: 96%
Second compound 1 µM, first compound 0.01 µM
  viability, T/C: 93.2%
[19]
  viability, T/C: 115%
[20]
  viability, T/C: 153%
Second compound 3.16 µM, first compound 0.000316 µM
  viability, T/C: 92%
Second compound 3.16 µM, first compound 0.001 µM
  viability, T/C: 135%
Second compound 3.16 µM, first compound 0.00316 µM
  viability, T/C: 95.7%
Second compound 3.16 µM, first compound 0.01 µM
  viability, T/C: 106%
[25]
  viability, T/C: 134%
[26]
  viability, T/C: 122%
Second compound 10 µM, first compound 0.000316 µM
  viability, T/C: 93.2%
Second compound 10 µM, first compound 0.001 µM
  viability, T/C: 110%
Second compound 10 µM, first compound 0.00316 µM
  viability, T/C: 88.3%
Second compound 10 µM, first compound 0.01 µM
  viability, T/C: 100%
[31]
  viability, T/C: 102%
[32]
  viability, T/C: 132%

## O=C(Nc1ccc(O)c(NS(=O)(=O)c2ccc(F)cc2)c1)c1ccc(-c2ccccc2)cc1 + Nc1ccc(C#CCN(C(=O)Cc2ncc(C(F)(F)F)cc2C(F)(F)F)c2ccc(F)cc2)nn1
Second compound 0.0316 µM
  IC50: > 10 µM
Second compound 0.1 µM
  IC50: > 10 µM
Second compound 0.316 µM
  IC50: > 10 µM
Second compound 1 µM
  IC50: > 10 µM
Second compound 3.16 µM
  IC50: > 10 µM
Second compound 10 µM
  IC50: > 10 µM
[1]
  viability, T/C: 93.4%
[2]
  viability, T/C: 119%
[3]
  viability, T/C: 108%
[4]
  viability, T/C: 88.1%
[5]
  viability, T/C: 105%
[6]
  viability, T/C: 77.5%
[7]
  viability, T/C: 95.5%
[8]
  viability, T/C: 105%
[9]
  viability, T/C: 94.5%
[10]
  viability, T/C: 103%
[11]
  viability, T/C: 117%
[12]
  viability, T/C: 63.8%
[13]
  viability, T/C: 91.3%
[14]
  viability, T/C: 114%
[15]
  viability, T/C: 102%
[16]
  viability, T/C: 99.2%
[17]
  viability, T/C: 106%
[18]
  viability, T/C: 77.4%
[19]
  viability, T/C: 92.8%
[20]
  viability, T/C: 92.8%
[21]
  viability, T/C: 95.5%
[22]
  viability, T/C: 95.2%
[23]
  viability, T/C: 112%
[24]
  viability, T/C: 73.6%
[25]
  viability, T/C: 93.6%
[26]
  viability, T/C: 94.2%
[27]
  viability, T/C: 91.3%
[28]
  viability, T/C: 96.3%
[29]
  viability, T/C: 93.7%
[30]
  viability, T/C: 62.2%
[31]
  viability, T/C: 92%
[32]
  viability, T/C: 90.1%
[33]
  viability, T/C: 89.2%
[34]
  viability, T/C: 88.7%
[35]
  viability, T/C: 95.1%
[36]
  viability, T/C: 51.5%
